In article PMC11628255, “Interference of metal ions on the bioluminescent signal of firefly, Renilla, and NanoLuc luciferases in high-throughput screening assays” (Frontiers in Chemistry, 2024):

Biological target: T1, firefly luciferase enzyme (FLuc) (Photinus pyralis, UniProt P08659)
T1 construct: commercial purified enzyme (Promega E1701)
Test: bioluminescence read-out, 384-well plate
Assay type: biochemical
Settings: 10 µM ATP with 10 µM D-luciferin, 5 mM MgSO4; ATP and Mg needed for signal

T1 sequence (P08659 whole entry): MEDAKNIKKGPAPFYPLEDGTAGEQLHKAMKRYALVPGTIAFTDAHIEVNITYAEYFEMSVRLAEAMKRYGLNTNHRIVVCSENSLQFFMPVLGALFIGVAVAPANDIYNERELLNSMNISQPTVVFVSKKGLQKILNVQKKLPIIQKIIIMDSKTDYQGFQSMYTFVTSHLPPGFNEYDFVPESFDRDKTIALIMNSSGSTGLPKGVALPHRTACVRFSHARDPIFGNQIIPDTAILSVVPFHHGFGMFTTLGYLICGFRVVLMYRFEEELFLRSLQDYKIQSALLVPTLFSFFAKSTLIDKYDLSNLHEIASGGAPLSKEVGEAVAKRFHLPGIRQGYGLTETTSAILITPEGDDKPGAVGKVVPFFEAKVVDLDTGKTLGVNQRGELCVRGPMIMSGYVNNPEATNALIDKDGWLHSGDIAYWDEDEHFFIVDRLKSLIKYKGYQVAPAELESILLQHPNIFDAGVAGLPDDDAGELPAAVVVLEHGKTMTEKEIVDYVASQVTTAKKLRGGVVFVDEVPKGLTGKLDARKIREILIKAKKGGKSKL

Compound: Nc1ncnc2c1ncn2[C@@H]1O[C@H](COP(=O)(O)OP(=O)(O)OP(=O)(O)O)[C@@H](O)[C@H]1O [ATP]
- bioluminescence read-out, 384-well plate: both ATP and Mg still need to be present in the FLuc reaction buffer
